In patent publication US8609161B2, “Conglutin-gamma as medicament and diet supplement” (Ospedale San Raffaele S.R.L., priority 2008, dated 2013):
Entries after “also recorded” stand apart in the source; their conditions may differ.

Tests used:
[1] = tested on: IRS-1; experiment: IRS-1 protein content, western blot of stimulated C2C12 myotubes; type: cell-based, mouse; settings: I 100 nM, Cg 0.5 mg/ml, Mf 400 μM; for IRS-1 activation: 30 min
Procedure: (§1) C2C12 myoblasts were cultured at 37° C. in humidified 5% CO2 atmosphere in a growth medium (GM) containing DMEM supplemented with 20% (v/v) FBS (fetal bovine serum), 1% penicillin-streptomycin and 1% L-glutamine. Cell differentiation was initiated by placing 70% confluent cell cultures in DMEM supplemented with 1% HS (horse serum) and antibiotics (DM). To prepare myotube cultures, myoblasts were cultured in DM for 72 hours. Cells used as control (C) were switched back to GM for the duration of the experiment. Other three groups of cells were replaced in GM with the selective addition respectively of insulin (I; 100 nM), conglutin-γ (Cg; 0.5 mg/ml) and metformin (Mf; 400 μM). For each experimental condition cells were lysed at 0, 5, 10, 20 and 30 minutes after the stimuli addition.
(§2) C2C12 myofibers were homogenized in lysis buffer (50 mM Tris/HCl, pH 7.4, 150 mM NaCl, 1% Triton X-100, 1 mM sodium orthovanadate (Na3VO4), 1 mM EDTA, 1 mM PMSF, 1 mg/ml aprotinin, 1 mg/ml leupeptin, 1 mg/ml pepstatin) and shaked for 1 h at 4° C. Detergent-insoluble material was removed from the cell suspension by centrifugation at 12,000×g for 30 min. Aliquots of 30 µg supernatant proteins from the different samples were resolved by 8% (IRS1, MHC, myogenin and p-CBL), 10% (PI3K p85, AKT1, p-p70 S6K and PKC), 12% (eIF-4E, p-ERK1, p-ERK2, caveolin-3 and flottilin-2) and 15% (PHAS1) SDS-PAGE (Sodium Dodecyl Sulfate—PolyAcrylamide Gel Electrophoresis). Electrophoresed proteins were transferred onto nitrocellulose membranes using a Bio-Rad Mini Trans-Blot system. […]
(§3) The membrane was stripped and re-probed with an antibody to actin or tubulin to confirm equal protein loading per sample. Quantitative measurement of immunoreactive bands was performed by densitometric analysis using the Scion image software (Scion corporation, Frederick, Md., USA).

[2] = tested on: Akt-1; experiment: Akt-1 protein, western blot of stimulated C2C12 myotubes; type: cell-based, mouse
Procedure: as §1, §2, §3

[3] = tested on: p70S6K; experiment: p70S6K phosphorylation, western blot of stimulated C2C12 myotubes; type: cell-based, mouse; settings: Mf 400 μM; for p70S6K phosphorylation: I 100 nM, Cg 0.5 mg/ml
Procedure: as §1
C2C12 myofibers were homogenized in lysis buffer (50 mM Tris/HCl, pH 7.4, 150 mM NaCl, 1% Triton X-100, 1 mM sodium orthovanadate (Na3VO4), 1 mM EDTA, 1 mM PMSF, 1 mg/ml aprotinin, 1 mg/ml leupeptin, 1 mg/ml pepstatin) and shaked for 1 h at 4° C. Detergent-insoluble material was removed from the cell suspension by centrifugation at 12,000×g for 30 min. Aliquots of 30 µg supernatant proteins from the different samples were resolved by 8% (IRS1, MHC, myogenin and p-CBL), 10% (PI3K p85, AKT1, p-p70 S6K and PKC), 12% (eIF-4E, p-ERK1, p-ERK2, caveolin-3 and flottilin-2) and 15% (PHAS1) SDS-PAGE (Sodium Dodecyl Sulfate—PolyAcrylamide Gel Electrophoresis). Electrophoresed proteins were transferred onto nitrocellulose membranes using a Bio-Rad Mini Trans-Blot system. The blots were blocked with 50 mg/ml non-fat dry milk in 20 mM Tris/HCl, pH 7.4, 100 mM NaCl for 1 h at room temperature and then incubated overnight at 4° C. with respective primary antibodies in 10 mg/ml non-fat dry milk, 20 mM TRIS/HCl pH 7.4 and 100 mM NaCl and 0.3% Tween 20. After several washes the membranes were incubated with species-specific secondary antibodies. Immunoreactive bands were visualized by an enhanced chemiluminescence method (Amersham Pharmacia Biotech, Piscataway, N.J., USA).
as §3

[4] = tested on: PHAS-1; experiment: PHAS-1 α and β bands, western blot of stimulated C2C12 myotubes; type: cell-based, mouse; settings: I 100 nM, Cg 0.5 mg/ml, Mf 400 μM
Procedure: as §1
(§4) C2C12 myofibers were homogenized in lysis buffer (50 mM Tris/HCl, pH 7.4, 150 mM NaCl, 1% Triton X-100, 1 mM sodium orthovanadate (Na3VO4), 1 mM EDTA, 1 mM PMSF, 1 mg/ml aprotinin, 1 mg/ml leupeptin, 1 mg/ml pepstatin) and shaked for 1 h at 4° C. […]
as §3

[5] = tested on: eIF4E; experiment: eIF4E protein, western blot of stimulated C2C12 myotubes; type: cell-based, mouse; settings: for eIF4E protein concentration increase: I 100 nM
Procedure: as §1, §2, §3

[6] = tested on: PKC; experiment: PKC protein, western blot of stimulated C2C12 myotubes; type: cell-based, mouse
Procedure: as §1, §4, §3

[7] = tested on: flottilin-2; experiment: flottilin-2 protein, western blot of stimulated C2C12 myotubes; type: cell-based, mouse
Procedure: as §1, §4, §3

[8] = tested on: caveolin-3; experiment: caveolin-3 protein, western blot of stimulated C2C12 myotubes; type: cell-based, mouse; settings: 30 min / toward the end of the experiment; I 100 nM, Mf 400 μM
Procedure: as §1, §4, §3

[9] = tested on: ERK1; experiment: ERK-1 phosphorylation, western blot of stimulated C2C12 myotubes; type: cell-based, mouse
Procedure: as §1, §4, §3

[10] = tested on: ERK2; experiment: ERK-2 phosphorylation, western blot of stimulated C2C12 myotubes; type: cell-based, mouse
Procedure: as §1, §2, §3

[11] = tested on: MHC; experiment: MHC gene expression (protein content), western blot of stimulated C2C12 myotubes; type: cell-based, mouse; settings: Cg 0.5 mg/ml
Procedure: as §1, §4, §3

[12] = tested on: myogenin; experiment: myogenin content, western blot of stimulated C2C12 myotubes; type: cell-based, mouse; settings: I 100 nM, Cg 0.5 mg/ml, Mf 400 μM
Procedure: as §1, §4, §3

[13] = tested on: C2C12 myoblasts; experiment: Immunofluorescence of MHC-positive myotubes (differentiation, hypertrophy); type: cell-based, mouse; settings: vs un-stimulated differentiated muscle cells; I 100 nM, Cg 0.5 mg/ml, Mf 400 μM
Procedure: To prepare myotube cultures, myoblasts were cultured in DM for 72 hours. Cells used as control (C) were switched back to GM for the duration of the experiment. […] For each experimental condition cells were lysed at 0, 5, 10, 20 and 30 minutes after the stimuli addition. For immunofluorescence analysis C2C12 myoblasts differentiated as above were stimulated with insulin, conglutin-γ and metformin for 30 minutes. In differentiated cells immunostained with anti-MHC the DAPI stained nuclei per myotube, myotubes length and diameter were determined and expressed as average.

[14] = tested on: p85-PI3 kinase; experiment: PI3K-p85 subunit, western blot of stimulated C2C12 myotubes; type: cell-based, mouse; settings: I 100 nM, Cg 0.5 mg/ml
Procedure: as §1, §4, §3

[15] = tested on: Cbl; experiment: Cbl phosphorylation, western blot of stimulated C2C12 myotubes; type: cell-based, mouse; settings: 30 min; I 100 nM
Procedure: as §1, §4, §3

[16] = Intraperitoneal glucose tolerance test (IPGTT), blood glucose; type: in vivo, C57B1/6 wild type mice
Procedure: (§5) For this protocol C57B1/6 wild type mice were utilized. Intraperitoneal glucose tolerance test (IPGTT) was performed by injecting glucose (2 g/kg body weight) i.p. in three groups of overnight-fasted mice. Thirty minutes before glucose administration, conglutin-gamma (120 mg/kg b.w.) was injected i.p. in the “Conglutin” group of mice. In the “Insulin” group of mice, insulin (0.5 U/kg b.w.) was administered i.p. at the same time of glucose injection (time 0). Blood glucose levels were determined prior (30 and 0 minutes) to injection and 30, 60, 90, and 120 min after injection. Blood samples were obtained from the tail vein and plasmas used to measure glucose concentration by the glucose reflectometer. At the end of the study gastrocnemius muscle was taken. A group of overnight-fasted mice (basal) was sacrificed before the study and gastrocnemius muscle taken. A group of animals that received saline instead of insulin or conglutin-gamma, was used as control (saline).

[17] = tested on: insulin receptor beta (IR-beta); experiment: IR-beta protein content in gastrocnemius muscle at end of IPGTT; type: in vivo, mouse; settings: 120 min, with respect to the basal and saline group; conglutin-gamma 120 mg/kg i.p., insulin 0.5 U/kg i.p.
Procedure: as §5
(§6) Collected gastrocnemius muscle was frozen in liquid nitrogen immediately after excision and then stored at −80° C. A gram of tissue with 1.5 ml of ice cold RIPA buffer was disrupted and homogenized with a dounce homogenizer, maintaining temperature at 4° C. throughout all procedures, then incubated on ice for 30 minutes. The homogenate was transferred to microcentrifuge tubes, centrifugated at 10,000×g for 10 minutes at 4° C. […]

[18] = tested on: AKT1; experiment: AKT1 protein expression in gastrocnemius muscle at end of IPGTT; type: in vivo, mouse; settings: 120 min, with respect to the untreated muscle; conglutin-gamma 120 mg/kg i.p., insulin 0.5 U/kg i.p.
Procedure: as §5, §6

[19] = tested on: GSK-3; experiment: GSK-3 in gastrocnemius muscle at end of IPGTT; type: in vivo, mouse; settings: 120 min; conglutin-gamma 120 mg/kg i.p., insulin 0.5 U/kg i.p.
Procedure: as §5, §6

[20] = tested on: p70S6K; experiment: p70S6k phosphorylation in gastrocnemius muscle at end of IPGTT; type: in vivo, mouse; settings: 120 min; conglutin-gamma 120 mg/kg i.p., insulin 0.5 U/kg i.p.
Procedure: as §5, §6

[21] = tested on: ERK1 and ERK2; experiment: ERK1 and ERK2 phosphorylation in gastrocnemius muscle at end of IPGTT; type: in vivo, mouse; settings: 120 min; conglutin-gamma 120 mg/kg i.p., insulin 0.5 U/kg i.p.
Procedure: as §5, §6

[22] = tested on: eIF4E; experiment: eIF4E protein in gastrocnemius muscle at end of IPGTT; type: in vivo, mouse; settings: 120 min; conglutin-gamma 120 mg/kg i.p., insulin 0.5 U/kg i.p.
Procedure: as §5, §6

[23] = Mf 400 μM vs insulin and conglutin-γ

`CN(C)C(=N)N=C(N)N` [metformin, Metformin] gave an IRS-1 activation [1] of roughly 76%, an Emax ([2]; Mus musculus, C2C12, 5 min, 5 min, Mf 400 μM, read-out: Akt-1 protein concentration change (maximal effect)) of roughly 20% and a p70S6K phosphorylation ([3]; 30 min) of roughly 32%. The Emax ([3]; Mus musculus, C2C12, 10 min, within 10 min, read-out: p70S6K phosphorylation (maximal effect)) was roughly 46%, the “density of PHAS-1 α and β bands in respect to the control” value [4] was “more increased” and the “eIF4E activation, in words” value ([5]; Mf 400 μM) was “not able to exert an activation”. The “PKC protein concentration stimulation, in words” value [6, 23] was “more than the other two stimuli”, the “flottilin-2 activation, in words” value ([7]; Mf 400 μM) was “did not exert any flottilin-2 activation” and the “caveolin-3 protein concentration increase” value [8] was “above 70%”. For the same compound, the “ERK1 activation, in words” value [9, 23] was “higher activation”, the “ERK2 activation, in words” value [10, 23] was “higher activation” and the “MHC gene expression, in words” value ([11]; with respect to un-stimulated differentiated muscle cells, Mf 400 μM) was “unable to produce the same effect; also recorded: not able to induce the same gene expression”. The myogenin activation [12] was “did not exert any effect”, the fusion index [13] was “gradually increase” and the myotubes diameter [13] was “gradually increase”. For the same compound, the myotubes length [13] was “gradually increase” and the “number of nuclei present in MHC positive myotubes” value [13] was “gradually increase”.
In the case of “insulin: primary hormone responsible for proteosynthesis control and glucose homeostasis; comparator stimulus”, the “IRS-1 protein content stimulation / activation” value ([1]; 20 min) is reported as roughly 32%, the IRS-1 activation [1] is reported as roughly 35% and the p85-PI3 kinase activation ([14]; 30 min (end of the experiment)) is reported as roughly 56%. For the same compound, the p85-PI3 kinase activation ([14]; within 5 min) was roughly 62%, the “Akt-1 protein concentration change” value ([2]; 20 min, I 100 nM, Cg 0.5 mg/ml, Mf 400 μM) was roughly 13% and the “AKT-1 phosphorylation, in words” value ([2]; any time 5-30 min, I 100 nM, Cg 0.5 mg/ml) was “modest stimulation above basal at any time”. For the same compound, the p70S6K phosphorylation ([3]; 30 min) was roughly 94%, the p70S6K phosphorylation ([3]; within 5 min) was roughly 40% and the “density of PHAS-1 α and β bands in respect to the control” value [4] was “more increased”. For the same compound, the “eIF4E protein concentration increase” value ([5]; 30 min (end of the experiment), Cg 0.5 mg/ml) was roughly 30%, the “eIF4E protein concentration increase” value ([5]; persistent from 5 to 20 min) was roughly 45% and the PKC concentration increase ([6]; 20 min, I 100 nM, Cg 0.5 mg/ml) was roughly 32%. For the same compound, the “flottilin-2 protein concentration increase (peak)” value ([7]; 10 min, I 100 nM, Cg 0.5 mg/ml) was roughly 60%, the “caveolin-3 protein concentration increase” value [8] was roughly 34% and the “Cbl phosphorylation (maximal)” value [15] was roughly 56%. The “ERK1 activation (peak)” value ([9]; 20 min, I 100 nM, Cg 0.5 mg/ml) was roughly 27%, the ERK2 activation ([10]; 10 min, I 100 nM) was roughly 20% and the “ERK2 activation (maximum)” value ([10]; 30 min, I 100 nM, Cg 0.5 mg/ml) was roughly 28%. The MHC expression increase ([11]; with respect to the un-stimulated differentiated muscle cells, I 100 nM) was roughly 600%, the myogenin activation [12] was “overlapping” and the fusion index [13] was “gradually increase”. The myotubes diameter [13] was “gradually increase”, the myotubes length [13] was “gradually increase” and the “number of nuclei present in MHC positive myotubes” value [13] was “gradually increase”. The “blood glucose concentration at the end of the study” value ([16]; 120 min after glucose 2 g/kg i.p., conglutin-gamma 120 mg/kg i.p. at -30 min, insulin 0.5 U/kg i.p. at time 0) was roughly 120 mg/dL, the “course of blood glucose decrease during IPGTT” value ([16]; glucose 2 g/kg i.p., conglutin-gamma 120 mg/kg i.p., insulin 0.5 U/kg i.p.) was “decreased rapidly” and the “IR-beta protein content in muscle” value [17] was “trend towards IR-beta protein content increment”. The “AKT1 expression in muscle” value [18] was “able to increase AKT1 expression”, the “GSK-3 phosphorylation in muscle” value [19] was “increased” and the “p70S6k phosphorylation in muscle” value [20] was “increased”. For the same compound, the “ERKs phosphorylation in muscle” value [21] was “able to increment” and the “eIF4E activation in muscle” value [22] was “able to increment”.
